Test results reported in paper PMC9229294, “Pyridazinones and Structurally Related Derivatives with Anti-Inflammatory Activity” (Molecules, 2022).
Like-named read-outs stand apart in the source and are kept apart here.

How the values were obtained:
[1] = system: LPS-induced NF-κB activity in THP1-Blue cells; test: Inhibition of LPS-induced NF-κB transcriptional activity, alkaline phosphatase reporter, THP1-Blue cells; type: cell-based, human; details: for IC50: LPS-induced NF-κB activity, human THP1-Blue cells, N.A. = no activity at 50 µM; for Observed class for inhibition of NF-κB activity: experimentally observed, Active or N.A.; for Inhibition of LPS-induced NF-κB activity (in words): THP1-Blue cells, 250 ng/mL LPS, 24 h; for Effect of blocking FPR1 (Boc-MLF) on inhibitor activity on LPS-induced NF-κB activation: 25 μM Boc-MLF 15 min, then 5 µM compound, LPS-treated THP1 cells
Experimental: (§1) Our studies included 175 compounds that were previously synthesized and characterized at NEUROFARBA, Pharmaceutical and Nutraceutical Section, University of Florence, Italy. We previously evaluated the FPR1/FPR2 agonist activity of these compounds by evaluating their ability to induce Ca^2+ mobilization in FPR-transfected HL60 cells and human neutrophils. […] All test compounds were dissolved in DMSO at stock concentrations of 10 mM and stored at −20 °C. For primary screening assays (analysis of NF-κB activation, IL-6 production, and cytotoxicity), the following final concentrations of the compounds were used: 3.125, 6.25, 12.5, 25, and 50 µM; the final concentration of DMSO was 1% in all samples.
The activation of NF-κB was measured using an alkaline phosphatase reporter assay in human monocytic THP1-Blue cells stably transfected with a secreted embryonic alkaline phosphatase gene that is under the control of a promoter inducible by the NF-κB. The THP1-Blue cells (2 × 10^5 cells/well) were pretreated with the test compound or DMSO for 30 min, followed by an addition of 250 ng/mL LPS for 24 h. Alkaline phosphatase activity was determined in cell supernatants using a QUANTI-Blue mix (InvivoGen) and measured at 655 nm and compared with positive control samples (LPS).

[2] = system: LPS-induced IL-6 production in MonoMac-6 cells; test: Inhibition of LPS-induced IL-6 production in MonoMac-6 cells (ELISA); type: cell-based, human; details: for IC50: Homo sapiens, MONO-MAC-6, read-out: Inhibition of IL-6 Production IC50 in MonoMac-6 Cells
Experimental: as §1
A human IL-6 ELISA kit (BD Biosciences, San Jose, CA, USA) was used to measure IL-6 production. […] The cells were pretreated with the test compound or DMSO for 30 min, followed by addition of 250 ng/mL LPS for 24 h. The IC50 values for IL-6 production were calculated by plotting the percentage inhibition against the logarithm of the inhibitor concentration (at least five points).

[3] = Cytotoxicity, CellTiter-Glo, THP1-Blue cells; type: cell-based, human; details: human, THP1-Blue cells
Experimental: as §1
(§2) The cytotoxicity was analyzed with a CellTiter-Glo Luminescent Cell Viability Assay Kit from Promega (Madison, WI, USA), according to the manufacturer’s protocol. The luminescent ATP assays are based on a luciferase enzymatic reaction which uses ATP from viable cells to generate photons. For this assay, the cells were incubated with the compounds under investigation for 24 h. After treatment, the cells were equilibrated to room temperature for 30 min, luciferase + luciferin substrate was added, and the samples were analyzed with a Fluoroscan Ascent FL (Thermo Fisher Scientific, Waltham, MA, USA). The IC50 values were calculated by plotting the percentage inhibition against the logarithm of the inhibitor concentration (at least five points).

[4] = Cytotoxicity, CellTiter-Glo, MonoMac-6 cells; type: cell-based, human; details: human, MonoMac-6 cells
Experimental: as §1, §2

MonoMac-6 cells = test: Cytotoxicity, CellTiter-Glo, MonoMac-6 cells; type: cell-based, human; details: 24 h
Experimental: as §1, §2

FPR1 [5] = target: T1, FPR1 (Homo sapiens, UniProt P21462); test: Ca2+ mobilization in FPR1-transfected HL-60 cells (agonist activity); type: cell-based; details: reported here for the first time (Suppl.)
T1 construct: expressed in transfected cells; host or cells: HL-60 cells (FPR1-HL60)
T1 sequence (P21462 1-350): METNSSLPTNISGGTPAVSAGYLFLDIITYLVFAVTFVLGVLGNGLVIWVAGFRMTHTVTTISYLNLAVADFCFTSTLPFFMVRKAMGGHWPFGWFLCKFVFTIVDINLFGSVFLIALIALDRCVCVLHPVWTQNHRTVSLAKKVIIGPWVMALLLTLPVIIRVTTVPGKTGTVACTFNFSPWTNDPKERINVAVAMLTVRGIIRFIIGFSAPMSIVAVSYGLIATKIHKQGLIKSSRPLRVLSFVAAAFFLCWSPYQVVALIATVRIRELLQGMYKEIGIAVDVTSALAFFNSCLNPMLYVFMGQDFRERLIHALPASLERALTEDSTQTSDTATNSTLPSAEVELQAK
Experimental: (§3) Changes in the intracellular Ca^2+ [Ca^2+]i were measured with a FlexStation II scanning fluorometer (Molecular Devices). The cells, which were suspended in Hank’s balanced salt solution without Ca^2+ and Mg^2+ but with 10 mM HEPES (HBSS^−), were loaded with 1.25 μg/mL Fluo-4 AM dye and incubated for 30 min in the dark at 37 °C. After the dye loading, the cells were washed with HBSS^− containing 10 mM HEPES, resuspended in HBSS^+ containing Ca^2+, Mg^2+, and 10 mM HEPES (HBSS^+), and aliquoted into the wells of black microtiter plates (2 × 10^5 cells/well). […] The maximum change in the fluorescence during the first 3 min, expressed in arbitrary units over the baseline, was used to determine a response. […] A curve fitting (5–6 points) and a calculation of median effective inhibitory concentrations (IC50) were performed by nonlinear regression analysis of the dose–response curves generated using Prism 8 (GraphPad Software, Inc., San Diego, CA, USA).

FPR2 [6] = target: T2, FPR2 (Homo sapiens, UniProt P25090); test: Ca2+ mobilization in FPR2-transfected HL-60 cells (agonist activity); type: cell-based; details: reported here for the first time (Suppl.)
T2 construct: expressed in transfected cells; host or cells: HL-60 cells (FPR2-HL60)
T2 sequence (P25090 1-351): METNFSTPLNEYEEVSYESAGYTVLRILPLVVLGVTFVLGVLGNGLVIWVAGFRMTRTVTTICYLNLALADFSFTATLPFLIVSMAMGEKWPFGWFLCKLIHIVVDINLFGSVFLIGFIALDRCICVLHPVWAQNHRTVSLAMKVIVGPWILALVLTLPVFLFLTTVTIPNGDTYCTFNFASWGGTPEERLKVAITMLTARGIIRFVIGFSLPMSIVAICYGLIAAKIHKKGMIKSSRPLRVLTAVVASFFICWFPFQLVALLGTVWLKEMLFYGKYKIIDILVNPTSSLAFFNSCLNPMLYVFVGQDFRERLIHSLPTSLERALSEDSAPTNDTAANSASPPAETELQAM
Experimental: as §3

[7] = system: rats with CFA-induced inflammatory arthritis; set-up: method as in PMID 32388428; details: cited from earlier work
FPR1 [8] = target: T1, FPR1; details: FPR1-transfected HL-60 cells, read-out: Ca2+ Mobilization FPR1 EC50 in HL-60 Cells, cited from earlier work
FPR2 [9] = target: T2, FPR2; details: FPR2-transfected HL-60 cells, read-out: Ca2+ Mobilization FPR2 EC50 in HL-60 Cells, cited from earlier work
mouse aortas = system: mouse aortas; set-up: method as in PMID 19639995, PMID 32085666, PMID 28169296; details: cited from earlier work
[10] = system: myocardial infarction injury in mice; set-up: method as in PMID 19639995, PMID 32085666, PMID 28169296; details: cited from earlier work
THP1-Blue cells = test: Cytotoxicity, CellTiter-Glo, THP1-Blue cells; type: cell-based, human; details: for Cytotoxicity in THP1-Blue Cells (FPR peptide agonists): peptides tested at 5 nM, N.T. = no cytotoxicity
Experimental: as §1, §2

[11] = N.T. = no cytotoxicity at 50 µM, read-out: Cytotoxicity IC50 in THP1-Blue Cells
[12] = Table 3, as reported previously (see Table 1)

## Cc1cc(Cc2ccsc2)c(=O)n(CC(=O)Nc2ccc(Br)cc2)n1 [Compound 9]
[1]; Homo sapiens
  IC50: 18 ± 0.7 µM
[1]
  Observed class for inhibition of NF-κB activity: Active
[2]
  IC50: 27.5 ± 1.6 µM
[3]; [11]
  IC50 at 24 h: > 50 µM
[4]
  IC50 at 24 h: 19 ± 3.6 µM
MonoMac-6 cells
  Cytotoxicity in MonoMac-6 cells (in words): exhibiting cytotoxicity

## Cc1cc(Cc2ccc(C(=O)Nc3ccc(Br)cc3)cc2)c(=O)n(CC(=O)Nc2ccc(Br)cc2)n1 [Compound 61]
FPR1 [5]
  EC50: > 50 µM
FPR2 [6]
  EC50: > 50 µM

## COc1cccc(Cc2c(C)c(C)nn(CC(=O)Nc3ccc(Br)cc3)c2=O)c1 [Compound 69]
[1]; Homo sapiens
  IC50: 34.5 ± 2.6 µM
[1]
  Inhibition of LPS-induced NF-κB activity (in words): inhibited
  Observed class for inhibition of NF-κB activity: Active
[3]; [11]
  IC50 at 24 h: > 50 µM
[7]
  Pain hypersensitivity: reduce pain hypersensitivity

## COc1cccc(Cc2c(-c3ccccc3)c(C)nn(CC(=O)Nc3ccc(Br)cc3)c2=O)c1 [Compound 71, N-(4-bromophenyl)-2-[5-(3-methoxybenzyl)-3-methyl-6-oxo-4-phenylpyridazin-1(6H)-yl]-acetamide]
[1]
  Effect of blocking FPR1 (Boc-MLF) on inhibitor activity on LPS-induced NF-κB activation: no effect
  Inhibition of LPS-induced NF-κB activity (in words): inhibited
  Observed class for inhibition of NF-κB activity: Active
[1]; Homo sapiens
  IC50: 0.5 ± 0.1 µM
[2]
  IC50: 2 ± 0.3 µM
[2]; MonoMac-6 cells, 250 ng/mL LPS, 24 h
  Inhibition of LPS-induced IL-6 production (in words): inhibited
[3]; [11]
  IC50 at 24 h: > 50 µM
[4]
  IC50 at 24 h: > 50 µM
FPR1 [8]; [12]
  EC50: 2.2 µM
FPR2 [9]; agonist activity from Table 1
  EC50: > 50 µM
FPR2 [9]; [12]
  EC50: > 50 µM
[7]
  Pain hypersensitivity: reduce pain hypersensitivity

## COc1cccc(Nc2c(C(C)=O)c(C)nn(CC(=O)Nc3ccc(Br)cc3)c2=O)c1 [Compound 73]
[1]
  Inhibition of LPS-induced NF-κB activity (in words): inactive
[7]
  Pain hypersensitivity: reduce pain hypersensitivity

## COc1cccc(Cc2cc(C)nn(C(C)C(=O)Nc3ccc(Br)cc3)c2=O)c1 (centres unmarked) [Compound 84, N-(4-bromophenyl)-2-[5-(3-methoxybenzyl)-3-methyl-6-oxopyridazin-1(6H)-yl]-propanamide]
[1]
  Effect of blocking FPR1 (Boc-MLF) on inhibitor activity on LPS-induced NF-κB activation: no effect
[1]; Homo sapiens
  IC50: 0.6 ± 0.1 µM
[2]
  IC50: 30.7 ± 1.8 µM
[3]; [11]
  IC50 at 24 h: > 50 µM
[4]
  IC50 at 24 h: > 50 µM
Mouse aortas
  Endothelium-independent relaxation: induce endothelium-independent relaxation
[10]
  Cardioprotection in myocardial infarction injury: cardioprotection effect

## CC1CC(c2ccccc2)=NN(CC(=O)Nc2ccc(Br)cc2)C1=O (centres unmarked) [Compound 125]
[1]
  IC50: 22.4 ± 0.7 µM
[2]
  IC50: 7.2 ± 0.03 µM
THP1-Blue cells; THP1-Blue cells, N.T. = no cytotoxicity at 50 µM
  IC50: > 50 µM
[4]
  IC50 at 24 h: > 50 µM
FPR1 [8]; agonist activity from Table 1
  EC50: 24.4 µM
FPR1 [8]; [12]
  EC50: 24.4 µM
FPR2 [9]; agonist activity from Table 1
  EC50: 10 µM
FPR2 [9]; [12]
  EC50: 10 µM

## Nc1cc(-c2ccncc2)cn(CC(=O)Nc2ccc(Br)cc2)c1=O [Compound 139]
FPR1 [5]
  EC50: > 50 µM
FPR2 [6]
  EC50: > 50 µM

## COc1cccc(Nc2c(C)c(-c3ccccc3)nn2CC(=O)Nc2ccc(Br)cc2)c1 [Compound 158]
[1]; Homo sapiens
  IC50: 8.8 ± 1.1 µM
[1]
  Observed class for inhibition of NF-κB activity: Active
[3]; 24 h, read-out: Cytotoxicity IC50
  IC50 at 24 h: 22 to 26 µM
[3]; [11]
  IC50 at 24 h: 22.4 ± 5.2 µM
THP1-Blue cells; 24 h
  Cytotoxicity in THP1-Blue cells (in words): cytotoxic
FPR1 [8]; agonist activity from Table 1
  EC50: > 50 µM
FPR2 [9]; agonist activity from Table 1
  EC50: > 50 µM

## CSCC[C@H](NC(=O)[C@@H](NC(=O)[C@H](CCSC)NC(=O)[C@H](Cc1ccc(O)cc1)NC(=O)[C@H](CCCCN)NC(=O)[C@@H](N)Cc1c[nH]c2ccccc12)C(C)C)C(=O)O [WKYMVM, Trp-Lys-Tyr-Met-Val-Met, reference compound]
THP1-Blue cells; THP1-Blue cells
  Cytotoxicity in THP1-Blue Cells (FPR peptide agonists): N.T. (No cytotoxicity was observed at the highest concentration tested (50 µM))

## CSCC[C@H](NC=O)C(=O)N[C@@H](CC(C)C)C(=O)N[C@@H](Cc1ccccc1)C(=O)O [f MLF]
THP1-Blue cells; THP1-Blue cells
  Cytotoxicity in THP1-Blue Cells (FPR peptide agonists): N.T. (No cytotoxicity was observed at the highest concentration tested (50 µM))
